Experimental findings from ChEMBL document CHEMBL4219198, “Peptidomimetic nitrile inhibitors of malarial protease falcipain-2 with high selectivity against human cathepsins” (Bioorg Med Chem Lett, 2018) are described below.

Experiment [1] addresses T1, Falcipain 2 (Plasmodium falciparum, UniProt Q9N6S8).
T1 sequence (Q9N6S8 whole entry): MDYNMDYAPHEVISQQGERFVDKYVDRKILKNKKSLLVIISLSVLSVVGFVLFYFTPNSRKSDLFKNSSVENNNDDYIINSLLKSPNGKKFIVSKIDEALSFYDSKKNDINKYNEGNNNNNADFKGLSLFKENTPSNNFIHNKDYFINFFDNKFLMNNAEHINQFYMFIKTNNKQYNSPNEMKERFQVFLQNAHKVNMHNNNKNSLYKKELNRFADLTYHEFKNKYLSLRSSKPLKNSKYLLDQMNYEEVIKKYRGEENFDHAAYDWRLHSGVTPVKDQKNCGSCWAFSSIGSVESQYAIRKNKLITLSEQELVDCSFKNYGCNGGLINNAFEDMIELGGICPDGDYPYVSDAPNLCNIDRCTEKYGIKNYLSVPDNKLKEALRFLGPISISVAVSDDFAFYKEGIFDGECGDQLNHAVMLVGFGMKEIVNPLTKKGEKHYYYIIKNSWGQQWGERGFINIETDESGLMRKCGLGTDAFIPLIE
The experiment in a line: Inhibition of Plasmodium falciparum falcipain-2.

Experiment [2] addresses Cathepsin B (Homo sapiens, UniProt P07858). The experiment in a line: Inhibition of human cathepsin B.
In experiment [3] the target is T2, Cathepsin K (Homo sapiens, UniProt P43235).
T2 sequence (P43235 whole entry): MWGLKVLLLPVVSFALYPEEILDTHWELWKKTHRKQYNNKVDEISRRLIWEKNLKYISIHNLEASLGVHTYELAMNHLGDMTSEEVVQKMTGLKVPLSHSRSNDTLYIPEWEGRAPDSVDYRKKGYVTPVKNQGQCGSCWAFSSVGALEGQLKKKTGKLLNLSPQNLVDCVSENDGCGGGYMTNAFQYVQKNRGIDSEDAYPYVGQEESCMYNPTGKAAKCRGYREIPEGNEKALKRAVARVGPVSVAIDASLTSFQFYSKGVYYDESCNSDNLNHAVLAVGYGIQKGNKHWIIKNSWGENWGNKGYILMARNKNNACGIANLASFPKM
Description: Inhibition of human cathepsin K.

The target in experiment [4] is Procathepsin L (Homo sapiens, UniProt P07711). Description: Inhibition of human cathepsin L.
Chain of Procathepsin L (P07711 whole entry): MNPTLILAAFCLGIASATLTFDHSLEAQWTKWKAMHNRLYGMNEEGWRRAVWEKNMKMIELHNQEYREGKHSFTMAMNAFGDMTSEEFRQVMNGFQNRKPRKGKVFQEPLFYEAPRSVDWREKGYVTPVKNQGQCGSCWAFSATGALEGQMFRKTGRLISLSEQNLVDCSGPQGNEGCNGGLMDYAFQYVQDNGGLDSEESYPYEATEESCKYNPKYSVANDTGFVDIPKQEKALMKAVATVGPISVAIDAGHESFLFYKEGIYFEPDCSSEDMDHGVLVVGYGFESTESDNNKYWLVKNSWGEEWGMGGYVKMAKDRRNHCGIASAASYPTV
Experiment [5] addresses Cathepsin S (Homo sapiens, UniProt P25774). The experiment in a line: Inhibition of human cathepsin S.
Experiment [6] is described as follows: Selectivity ratio of IC50 for human cathepsin B to IC50 for Plasmodium falciparum falcipain-2.
Experiment [7] can be described thus: Selectivity ratio of IC50 for human cathepsin K to IC50 for Plasmodium falciparum falcipain-2.
Experiment [8] in a line: Selectivity ratio of IC50 for human cathepsin L to IC50 for Plasmodium falciparum falcipain-2.
The nature of experiment [9]: Selectivity ratio of IC50 for human cathepsin S to IC50 for Plasmodium falciparum falcipain-2.
The target of experiment [10] is T3, Cysteine protease falcipain-3 (Plasmodium falciparum, UniProt Q9NAW4).
T3 sequence (Q9NAW4 whole entry): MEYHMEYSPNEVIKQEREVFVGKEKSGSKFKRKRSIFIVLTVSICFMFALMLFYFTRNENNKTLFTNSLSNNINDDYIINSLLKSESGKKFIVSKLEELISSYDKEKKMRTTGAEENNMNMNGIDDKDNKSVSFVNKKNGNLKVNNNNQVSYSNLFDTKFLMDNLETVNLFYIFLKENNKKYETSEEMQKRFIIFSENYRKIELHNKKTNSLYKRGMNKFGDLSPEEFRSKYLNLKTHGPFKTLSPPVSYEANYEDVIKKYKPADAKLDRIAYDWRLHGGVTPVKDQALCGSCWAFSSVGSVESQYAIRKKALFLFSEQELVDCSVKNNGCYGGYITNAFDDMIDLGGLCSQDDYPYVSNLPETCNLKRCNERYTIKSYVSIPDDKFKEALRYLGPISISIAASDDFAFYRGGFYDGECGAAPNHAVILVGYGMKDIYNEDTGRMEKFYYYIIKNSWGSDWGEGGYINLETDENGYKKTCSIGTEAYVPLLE
Description: Inhibition of Plasmodium falciparum falcipain-3.

Experiment [11] deals with Plasmodium falciparum. Description: Antimalarial activity against Plasmodium falciparum infected in human erythrocytes. In kind it is functional, organism-based.

Chain of Cathepsin S (P25774 whole entry): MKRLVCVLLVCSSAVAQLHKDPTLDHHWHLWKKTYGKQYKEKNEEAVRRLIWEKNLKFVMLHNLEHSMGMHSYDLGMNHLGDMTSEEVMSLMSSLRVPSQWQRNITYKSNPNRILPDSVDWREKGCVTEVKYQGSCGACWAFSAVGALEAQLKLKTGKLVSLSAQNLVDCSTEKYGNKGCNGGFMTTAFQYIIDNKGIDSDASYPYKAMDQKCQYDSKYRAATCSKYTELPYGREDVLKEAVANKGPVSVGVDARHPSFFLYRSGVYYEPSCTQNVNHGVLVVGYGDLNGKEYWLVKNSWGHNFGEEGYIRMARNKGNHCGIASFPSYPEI

Usually IC50 stands for the concentration needed to halve the response being measured. A lower IC50 goes with inhibition by little substance. As a reminder, the EC50 is the concentration needed to bring the measured effect to its halfway point. A higher EC50 goes with weaker potency. Consider `N#CC1(NC(=O)[C@H](Cc2cccnc2)NC(=O)c2ccc(-c3ccccc3)cc2)CC1`, for which the IC50 in [1] was determined as 23.1 nM; in [2], 2750 nM; in experiment [3] it was 202 nM; in experiment [4] it was 1590 nM; in experiment [5], 382 nM; in experiment [10], 117 nM. Moreover, the Ratio IC50 is 119 in [6], 9 in [7], 69 in experiment [8] and 11 in experiment [9]. In addition, in experiment [11], the EC50 is > 25 µM.
